Values quoted from earlier work in patent US10720228B2, “Method and system for testing of active molecules using molecular simulation of skin membrane” (Tata Consultancy Services Limited, priority 2016, dated 2020).

Details: 323 K

## O [water]
  experimentally observed free energy of water solvation in hexadecane: 5.98 kcal/mol
